Experimental data reported in ChEMBL document CHEMBL1130610, “Synthesis and immunosuppressant activity of pyrazole carboxamides” (Bioorg Med Chem Lett, 1998).
In brackets after ≈: the same amount, converted by molar mass. Activity calls are given as the source filed them. No cut-off for these calls is given here.

Assays:
Homo sapiens [1] = species: Homo sapiens; test: Immunosuppressant activity using human mixed leukocyte response (HMLR).; assay type: functional
Rattus norvegicus [2] = species: Rattus norvegicus; test: Immunosuppressant activity in rat using mixed leukocyte response (MLR).; assay type: functional
[3] = C max value was evaluated; assay type: ADME, organism-based; conditions: in vivo
[4] = Aqueous solubility at a pH of 7.3.; assay type: physicochemical; conditions: pH 7.3, read-out: S
[5] = Half-life value was evaluated; assay type: ADME
Rattus norvegicus [6] = species: Rattus norvegicus; test: Compound was tested for immunosuppressant activity in rat using mixed leukocyte response (MLR).; assay type: functional
Homo sapiens [7] = species: Homo sapiens; test: Compound was tested for immunosuppressant activity using human mixed leukocyte response (HMLR).; assay type: functional
Homo sapiens [8] = species: Homo sapiens; test: Compound was tested for immunosuppressant activity using human mixed leukocyte response(HMLR) at a concentration of 10 uM; Not active; assay type: functional
Rattus norvegicus [9] = species: Rattus norvegicus; test: Compound was tested for immunosuppressant activity in rat using mixed leukocyte response(MLR) at a concentration of 10 uM; Not active; assay type: functional
Homo sapiens [10] = species: Homo sapiens; test: Compound was tested for immunosuppressant activity using human mixed leukocyte response(HMLR); Not active, < 20 % inhibition at 10 uM; assay type: functional
Rattus norvegicus [11] = species: Rattus norvegicus; test: Compound was tested for immunosuppressant activity in rat using mixed leukocyte response(MLR); Not active, < 20 % inhibition at 10 uM; assay type: functional
Homo sapiens [12] = species: Homo sapiens; test: Compound was tested for immunosuppressant activity using human mixed leukocyte response(HMLR) assay.; assay type: functional
Homo sapiens [13] = species: Homo sapiens; test: Compound was tested for immunosuppressant activity using human mixed leukocyte response(HMLR) at 10 uM; Not active; assay type: functional

Row | IC50 (Homo sapiens [1]) | IC50 (Rattus norvegicus [2]) | SMILES | further results
1 | 1300 nM | 210 nM | Cc1c(C(=O)Nc2ccc(C(F)(F)F)cc2)cnn1-c1ccc(F)c(Cl)c1 | 
2 | 5400 nM | 1700 nM | Cc1c(C(=O)Nc2ccc(C(F)(F)F)cc2)cnn1CCc1ccc(F)cc1 | 
3 | 410 nM | 1000 nM | Cc1ccc(-n2ncc(C(=O)Nc3ccc(C(F)(F)F)cc3)c2C)cc1 | 
4 |  |  | Cc1c(C(=O)Nc2ccc(C(F)(F)F)cc2)cnn1-c1ccc(F)cc1 | Cmax [3]: 460 ng/mL; solubility [4]: 0.4 µg/mL (≈ 1.1 µM); half-life [5]: 13.7 h; IC50 (Rattus norvegicus [6]): 270 nM; IC50 (Homo sapiens [7]): 850 nM
5 | 3400 nM | 2600 nM | Cc1c(C(=O)Nc2ccc(OC(F)(F)F)cc2)cnn1-c1ccc(F)cc1 | 
6 | 3900 nM | 1600 nM | Cc1c(-c2ccc(-c3ccccc3F)cc2)nc2ccc(F)cc2c1C(=O)O [BREQUINAR] | 
7 | 580 nM | 110 nM | CCCCC(CC)NC(=O)c1cnn(-c2ccc(F)cc2)c1C (stereo not given) | 
8 |  | 300 nM | Cc1c(C(=O)NCCc2ccc(F)cc2)cnn1-c1ccc(F)cc1 | inhibition at 10 µM (Homo sapiens [8]): < 20%
9 | 2300 nM | 650 nM | Cc1c(C(=O)Nc2ccc(C(F)(F)F)cc2)cnn1-c1ccccc1 | 
10 | 5400 nM | 1000 nM | Cc1oncc1C(=O)Nc1ccc(C(F)(F)F)cc1 [LEFLUNOMIDE] | 
11 | 3200 nM | 310 nM | Cc1c(C(=O)N(CC(=O)O)c2ccc(C(F)(F)F)cc2)cnn1-c1ccc(F)cc1 | Cmax [3]: 4450 ng/mL; solubility [4]: 1530 µg/mL (≈ 3640 µM); half-life [5]: 6 h
12 | 2500 nM | 2500 nM | COc1cccc(-n2ncc(C(=O)Nc3ccc(C(F)(F)F)cc3)c2C)c1 | 
13 | 1100 nM | 110 nM | Cc1ccccc1NC(=O)c1cnn(-c2ccc(F)cc2)c1C | 
14 | 2500 nM | 890 nM | Cc1cccc(-n2ncc(C(=O)Nc3ccc(C(F)(F)F)cc3)c2C)c1 | 
15 | 1700 nM | 1100 nM | Cc1c(C(=O)Nc2cccc(C(F)(F)F)c2)cnn1-c1ccc(F)cc1 | 
16 | 340 nM | 1000 nM | COc1ccc(-n2ncc(C(=O)Nc3ccc(C(F)(F)F)cc3)c2C)cc1 | 
17 | 5700 nM | 890 nM | Cc1cccc(NC(=O)c2cnn(-c3ccc(F)cc3)c2C)c1 | 
18 | 1100 nM | 110 nM | Cc1c(C(=O)Nc2ccc(C(F)(F)F)cc2)cnn1-c1ccccc1F | 

Row | IC50 (Homo sapiens [1]) | IC50 (Rattus norvegicus [2]) | SMILES | further results
19 | 1600 nM | 240 nM | Cc1c(C(=O)Nc2ccc(C(F)(F)F)cc2)cnn1-c1cccc(Cl)c1Cl | 
20 |  |  | Cc1n[nH]cc1C(=O)Nc1ccc(C(F)(F)F)cc1 | inhibition at 10 µM (Homo sapiens [8]): < 20%; inhibition at 10 µM (Rattus norvegicus [9]): < 20%
21 |  |  | C/C(Nc1ccc(F)cc1)=C(/C#N)C(=O)Nc1ccc(C(F)(F)F)cc1 | inhibition (Homo sapiens [10]): inactive; inhibition (Rattus norvegicus [11]): inactive
22 | 2600 nM | 260 nM | Cc1c(C(=O)Nc2ccc(C(F)(F)F)cc2)cnn1-c1ccccc1C(F)(F)F | 
23 | 2200 nM | 410 nM | Cc1cc(C)cc(-n2ncc(C(=O)Nc3ccc(C(F)(F)F)cc3)c2C)c1 | 
24 |  |  | C/C(Nc1ccc([N+](=O)[O-])cc1)=C(/C#N)C(=O)Nc1ccc(C(F)(F)F)cc1 | inhibition (Homo sapiens [10]): inactive; inhibition (Rattus norvegicus [11]): inactive
25 | 410 nM | 7400 nM | Cc1c(C(=O)Nc2ccc(C(F)(F)F)cc2)cnn1-c1ccc(Cl)cc1 | 
26 | 5700 nM | 2300 nM | Cc1c(C(=O)Nc2ccc(C(F)(F)F)cc2)cnn1-c1ccc([N+](=O)[O-])cc1 | 
27 | 3000 nM | 800 nM | Cc1c(C(=O)Nc2cccc(F)c2)cnn1-c1ccc(F)cc1 | 
28 |  | 610 nM | Cc1c(C(=O)Nc2ccc(F)cc2)cnn1-c1ccc(F)cc1 | IC50 (Homo sapiens [12]): 2400 nM
29 | 3100 nM | 220 nM | Cc1c(C(=O)Nc2ccc(C(F)(F)F)cc2)cnn1-c1cccc(F)c1 | 
30 | 3700 nM | 3600 nM | COc1cccc(NC(=O)c2cnn(-c3ccc(F)cc3)c2C)c1 | 
31 |  |  | C/C(Nc1ccccc1)=C(/C#N)C(=O)Nc1ccc(C(F)(F)F)cc1 | inhibition (Homo sapiens [10]): inactive; inhibition (Rattus norvegicus [11]): inactive
32 | 540 nM | 200 nM | Cc1ccc(NC(=O)c2cnn(-c3ccc(F)cc3)c2C)cc1 | 
33 | 4000 nM | 5100 nM | Cc1c(C(=O)Nc2ccccc2F)cnn1-c1ccc(F)cc1 | 
34 | 1500 nM | 150 nM | Cc1ccccc1-n1ncc(C(=O)Nc2ccc(C(F)(F)F)cc2)c1C | 
35 |  | 330 nM | Cc1c(C(=O)NCc2ccc(F)cc2)cnn1-c1ccc(F)cc1 | inhibition at 10 µM (Homo sapiens [13]): < 20%

Row | SMILES | IC50 (Homo sapiens [1]) | IC50 (Rattus norvegicus [2]) | further results
36 | Cc1c(C(=O)Nc2ccc(C(F)(F)F)cc2)cnn1Cc1ccc(F)cc1 | 3600 nM | 2400 nM | 
37 | Cc1c(C(=O)Nc2ccc(C(F)(F)F)cc2)cnn1Cc1ccccc1 | 3700 nM | 2700 nM | 
